# Source: patent US9512128B2 (BAYER CROPSCIENCE AG, priority 2012, dated 2016)
# Read-outs that look alike come from different tables or passages of the source.
# Legend:
# [1] = log P by HPLC on reversed-phase columns (C 18), EEC directive 79/831 Annex V.A8; format: physicochemical; details: for logP[a]: method [a]; for logP[b]: method [b]; for chromatographic logP: reversed-phase C18 HPLC column
# Summary of the method: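 Measured by reversed-phase C18 HPLC (LC-MS) with a linear 10→95% acetonitrile gradient. Acidic: pH 2.7, 0.1% formic acid. Neutral: pH 7.8, 0.001 M ammonium bicarbonate.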
# [2] = system: southern root-knot nematode (Meloidogyne incognita); assay: Meloidogyne incognita test (MELGIN); format: in vivo; details: application rate 20 ppm, after 14 days, lettuce
# Procedure: 5. Meloidogyne incognita Test (MELGIN) • Solvent: 125.0 parts by weight of acetone To prepare a suitable active compound preparation, 1 part by weight of active compound is mixed with the stated amount of solvent and the concentrate is diluted with water to the desired concentration. Vessels are filled with sand, active compound solution, an egg/larvae suspension of the southern root-knot nematode (Meloidogyne incognita) and lettuce seeds. The lettuce seeds germinate and the plants develop. On the roots, galls are formed. After 14 days, the nematicidal effect in % is determined by the formation of galls. 100% means that no galls have been found; 0% means that the number of galls on the treated plants corresponds to the untreated control.
# [3] = system: greenhouse red spider mite (Tetranychus urticae); assay: Tetranychus urticae spray test, OP-resistant (TETRUR); format: in vivo; details: application rate 500 g/ha, after 6 days, bean leaf discs
# Procedure: 4. Tetranychus urticae Spray Test, OP-Resistant (TETRUR)
# • Solvents: 78.0 parts by weight of acetone • 1.5 part by weight of dimethylformamide • Emulsifier: 0.5 part by weight of alkylaryl polyglycol ether
# To produce a suitable preparation of active compound, 1 part by weight of active compound is mixed with the stated amounts of solvents and emulsifier, and the concentrate is diluted with emulsifier-containing water to the desired concentration.
# Discs of bean leaves (Phaseolus vulgaris) which are infested by all stages of the greenhouse red spider mite (Tetranychus urticae) are sprayed with an active compound preparation of the desired concentration.
# After 6 days, the efficacy in % is determined. 100% means that all of the spider mites have been killed; 0% means that none of the spider mites have been killed.
SMILES,logP[a] [1],logP[b] [1],nematicidal effect in % (formation of galls) [2],efficacy in % (spider mites killed) [3],also measured
Cc1c2c(=O)n(-c3ccc(C(F)(F)F)c(SCC(F)(F)F)c3)cnc2nn1C [Compound 45],2.70,2.63,80%,,
Cc1cc(C)c([S+]([O-])CC(F)(F)F)cc1-n1cnc2sccc2c1=O (centres unmarked) [Compound 97],2.15,2.11,90%,,
O=c1c2ncsc2ncn1-c1cc(SCC(F)(F)F)c(Cl)cc1Cl [Compound 63],2.83,2.77,90%,,
Cc1cc(F)c(-n2c(C)nc3cnn(C)c3c2=O)cc1SCC(F)(F)F [Compound 39],2.94,2.87,,90%,
Cc1ccc(-n2cnc3nsc(C(C)(C)C)c3c2=O)cc1SCC(F)(F)F [Compound 116],4.05,3.96,,90%,
Cc1cc(C)c(-n2cnc3sccc3c2=O)cc1SCC(F)(F)F [Compound 91],3.34,3.25,,100%,
CCn1cnc2c(=O)n(-c3cc([S+]([O-])CC(F)(F)F)c(C)cc3F)cnc21 (racemic) [Compound 54],1.60,1.59,,100%,
Cc1c2c(=O)n(-c3ccc(Cl)c([S+]([O-])CC(F)(F)F)c3)cnc2nn1C (racemic) [Compound 49],1.78,1.75,90%,,
Cc1cc(F)c(-n2cnc3cnn(C)c3c2=O)cc1SCC(F)(F)F [Compound 38],2.76,2.76,,90%,
Cc1cc(F)c(-n2cnc3c(Cl)csc3c2=O)cc1[S+]([O-])CC(F)(F)F (centres unmarked) [Compound 114],2.43,2.38,90%,,
Cc1cc(F)c(-n2cnc3c(cnn3CC(F)(F)F)c2=O)cc1[S+]([O-])CC(F)(F)F (racemic) [Compound 18],2.34,2.33,90%,,
Cc1cc(C)c([S+]([O-])CC(F)(F)F)cc1-n1cnc2scnc2c1=O (centres unmarked) [Compound 66],1.6,1.62,,90%,
Cc1cc(F)c(-n2c(C)nc3c(cnn3CC(F)(F)F)c2=O)cc1SCC(F)(F)F [Compound 20],3.50,3.44,,90%,
Cc1cc(F)c(-n2cnc3ccsc3c2=O)cc1[S+]([O-])CC(F)(F)F (centres unmarked) [Compound 113],2.35,2.31,90%,,
Cc1cc(F)c(-n2cnc3ccsc3c2=O)cc1SCC(F)(F)F [Compound 108],3.01,2.90,90%,,
O=c1c2ccsc2ncn1-c1ccc(Cl)c([S+]([O-])CC(F)(F)F)c1 (centres unmarked) [Compound 87],2.20,2.17,100%,,

SMILES,logP[a] [1],logP[b] [1],nematicidal effect in % (formation of galls) [2],efficacy in % (spider mites killed) [3],also measured
CC(C)(C)c1snc2ncn(-c3ccc(Cl)c(SCC(F)(F)F)c3)c(=O)c12 [Compound 117],4.06,3.97,,90%,
Cc1cc(F)c(-n2cnc3sccc3c2=O)cc1SCC(F)(F)F [Compound 92],3.22,3.14,,100%,
Cc1nn(C)c2ncn(-c3ccc(C(F)(F)F)c([S+]([O-])CC(F)(F)F)c3)c(=O)c12 (racemic) [Compound 32],2.39,2.34,90%,,
"Cc1cc(F)c(-n2nnc3c(cnn3C)c2=O)cc1SCC(F)(F)F [Compound 119, 3-{2-Fluoro-4-methyl-5-[(2,2,2-trifluoroethyl)sulphanyl]phenyl}-7-methyl-3,7-dihydro-4H-pyrazolo[3,4-d][1,2,3]triazin-4-one]",,,,90%,"chromatographic logP ([1]; pH 2.7, acidic range, pH 2.7, 0.1% aqueous formic acid / acetonitrile, read-out: log P[a]): 3.16; chromatographic logP ([1]; pH 2.7, method [a], read-out: logP[a]): 3.16; chromatographic logP ([1]; pH 7.8, method [b], read-out: logP[b]): 3.13; chromatographic logP ([1]; pH 7.8, neutral range, pH 7.8, 0.001 molar aqueous ammonium bicarbonate / acetonitrile, read-out: log P[b]): 3.13"
Cc1cc(F)c(-n2cnc3c(ncn3C)c2=O)cc1SCC(F)(F)F [Compound 52],2.17,2.11,,90%,
Cc1cc(F)c(-n2c(C(F)(F)F)nc3nn(C)cc3c2=O)cc1[S+]([O-])CC(F)(F)F (centres unmarked) [Compound 43],,,90%,,
Cn1ncc2c(=O)n(-c3ccc(C#N)c([S+]([O-])CC(F)(F)F)c3)cnc21 (racemic) [Compound 26],1.51,1.56,,90%,
Cc1cc(F)c(-n2c(C)nc3scnc3c2=O)cc1SCC(F)(F)F [Compound 64],2.72,2.70,90%,,
Cc1nc2c(=O)n(-c3cc(SCC(F)(F)F)c(C)cc3F)cnc2s1 [Compound 70],2.80,2.74,90%,,
Cc1cc(C)c(-n2cnc3ncsc3c2=O)cc1SCC(F)(F)F [Compound 76],2.62,2.59,,90%,
Cc1cc(F)c(-n2c(C)nc3scnc3c2=O)cc1[S+]([O-])CC(F)(F)F (centres unmarked) [Compound 68],1.72,1.70,,90%,
CCc1nc2cnn(C)c2c(=O)n1-c1cc(SCC(F)(F)F)c(C)cc1F [Compound 146],,,90%,,
Cc1cc(F)c(-n2nnc3cnn(C)c3c2=O)cc1SCC(F)(F)F [Compound 137],,,,100%,
CCn1ncc2c(=O)n(-c3cc([S+]([O-])CC(F)(F)F)c(C)cc3F)cnc21 (centres unmarked) [Compound 126],,,,90%,
Cc1cc(F)c(-n2c(C)nc3cnn(CC4CC4)c3c2=O)cc1SCC(F)(F)F [Compound 168],,,90%,,
Cc1nc2c(=O)n(-c3cc([S+]([O-])CC(F)(F)F)c(C)cc3C)c(C)nc2s1 (centres unmarked) [Compound 186],,,,90%,
